The source of these data is patent US20160368895A1, “PULMONARY HYPERTENSION TREATING AGENT” (THE UNIVERSITY OF TOKYO, priority 2013, published 2016).

Common to all, as to type: cell-based
Experiment [1] has as its target T1, human PGI2 receptors (hIP) (Homo sapiens, UniProt P43119).
T1 construct: expressed in transfected cells; host or cells: CHO-K1
Briefly: Method B: positive allosteric modulator activity, cAMP in CHO/hIP cells with 1 nM epoprostenol. The note with it: cAMP relative to 1 nM epoprostenol alone. Here is the method:
The positive allosteric modulator activity of a test compound was measured as a change in the amount of intracellular cyclic AMP (cAMP) in the presence of 1 nM of the IP agonist epoprostenol (manufactured by GlaxoSmithKline), using CHO-K1 cells (CHO/hIP cells) in which human PGI2 receptors (hIP) are stably expressed.
An amount of 5 μL of a mixture (diluted in F-12 culture medium (manufactured by GIBCO) including 0.1% BSA) of epoprostenol dissolved in DMSO and a test compound dissolved in DMSO was dispensed in advance into a 384-well black microplate, and 5 μL of CHO/hIP cells suspended at a concentration of 1.4×10^6 cells/mL in F-12 culture medium including 0.1% BSA were added to the microplate. After 40 minutes of incubation at room temperature, the amount of cAMP was measured using a cAMP assay kit (cAMP HiRange, manufactured by Cisbio Bioassays). Specifically, 5 μL of a cAMP-d2 solution (including a cell lysate) from the kit were added and the reaction was stopped, then 5 μL of a fluorescence-labeled cAMP antibody solution from the kit were added and incubation was performed for 1 hour at room temperature, after which fluorescence was measured using a PHERAstar plate reader (manufactured by BMG) in HTRF (registered trademark) mode. The amount of cAMP in each well was calculated from a cAMP calibration curve obtained using a standard sample, and the activity of each test compound is noted below as a ratio T/C (%) based on the amount of cAMP for 1 nM of epoprostenol alone.

The target in experiment [2] is T1, human PGI2 receptors (hIP). Description: Method C: effect on epoprostenol-cAMP production curve in CHO/hIP cells (left shift value). The note with it: Table 4, concentration of test compound that halves the EC50 of epoprostenol. Here is the method:
The effect of a test compound on the cAMP production curve with respect to the IP agonist epoprostenol (manufactured by GlaxoSmithKline) was investigated using CHO-K1 cells (CHO/hIP cells) in which human PGI2 receptors (hIP) are stably expressed.
(§1) An amount of 5 μL of a mixture (diluted in F-12 culture medium (manufactured by GIBCO) including 0.1% BSA) of epoprostenol dissolved in DMSO and a test compound dissolved in DMSO was dispensed in advance into a 384-well black microplate, and 5 μL of CHO/hIP cells suspended at a concentration of 1.4×10^6 cells/mL in F-12 culture medium including 0.1% BSA were added to the microplate. After 40 minutes of incubation at room temperature, the amount of cAMP was measured using a cAMP assay kit (cAMP HiRange, manufactured by Cisbio Bioassays). Specifically, 5 μL of a cAMP-d2 solution (including a cell lysate) from the kit were added and the reaction was stopped, then 5 μL of a fluorescence-labeled cAMP antibody solution from the kit were added and incubation was performed for 1 hour at room temperature, after which fluorescence was measured using a PHERAstar plate reader (manufactured by BMG) in HTRF (registered trademark) mode. The amount of cAMP in each well was calculated from a cAMP calibration curve obtained using a standard sample, and an epoprostenol-cAMP production curve for the presence of various concentrations of the test compound was created.

The target of experiment [3] is T1, human PGI2 receptors (hIP). Briefly: Method D: effect on cAMP production in human aortic smooth muscle cells (left shift value). Particulars: concentration of test compound that halves the EC50 of epoprostenol. On the procedure: The effect of a test compound on the cAMP production curve with respect to the IP agonist epoprostenol (manufactured by GlaxoSmithKline) was investigated using human aortic smooth muscle cells known to express human PGI2 receptors (hIP).
as §1, with “created. […]” for “created.”
On the technique in general: Changes in cAMP serve as a functional read-out for many G protein-coupled receptors.

Structures are written as SMILES.

T1 sequence (P43119 whole entry): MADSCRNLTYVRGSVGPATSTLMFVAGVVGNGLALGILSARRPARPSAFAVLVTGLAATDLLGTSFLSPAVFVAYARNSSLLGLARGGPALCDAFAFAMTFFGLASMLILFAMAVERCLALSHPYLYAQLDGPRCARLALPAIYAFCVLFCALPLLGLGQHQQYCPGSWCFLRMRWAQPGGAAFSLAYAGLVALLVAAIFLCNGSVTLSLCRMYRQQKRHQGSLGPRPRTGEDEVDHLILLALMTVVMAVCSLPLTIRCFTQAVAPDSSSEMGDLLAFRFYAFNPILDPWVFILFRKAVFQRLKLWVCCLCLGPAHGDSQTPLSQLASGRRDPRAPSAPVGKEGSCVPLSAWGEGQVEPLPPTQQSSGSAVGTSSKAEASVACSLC

As for `CC(C)(C)n1nnnc1C(c1ccccc1OCc1ccccc1)N1CCc2ccccc2C1` (centres unmarked) [Example 1, 2-((2-(benzyloxy)phenyl)(1-tert-butyl-1H-tetrazol-5-yl)methyl)-1,2,3,4-tetrahydroisoquinoline], in experiment [1] (test concentration 10 uM), the T/C (in general, the ratio of treated to control) was 151.7%. The left shift value in experiment [2] came out at 24.9 µM.
In experiment [1] (test concentration 5 uM), `Cc1ccc(C(c2nnnn2C(C)(C)C)N2CCc3ccccc3C2)cc1` (centres unmarked) [Example 3] showed a T/C of 100.6%. For the same molecule, in experiment [2], the left shift value was 71.4 µM.
In experiment [1] (test concentration 10 uM), `CC(C)(C)n1nnnc1C(c1ccccc1N)N1CCc2ccccc2C1` (centres unmarked) [Example 58, 2-((1-tert-butyl-1H-tetrazol-5-yl)(3,4-dihydroisoquinolin-2(1H)-yl)methyl)aniline] returned a T/C of 102.7%. In experiment [2], the left shift value turned out to be 78.3 µM.
For `COc1ccc(C(c2nnnn2C(C)(C)C)N2CCc3ccccc3C2)c(OC)c1` (centres unmarked) [Example 12], the T/C in experiment [1] (test concentration 10 uM) is listed as 155.2%. Moreover, the left shift value in experiment [2] is 10.4 µM.
`CCOc1ccccc1C(C1=NNCN1C(C)(C)C)N1CCc2ccc(O)cc2C1` (centres unmarked) [Example 56] registered a T/C in experiment [1] (test concentration 10 uM) of 101.0%. Further, the left shift value in experiment [2] is 117.3 µM.
On to `CC(C)(C)n1nnnc1C(C1=CCC=C1)N1CCc2ccccc2C1` (centres unmarked) [Example 32], for which, in experiment [1] (test concentration 10 uM), the T/C is 153.8%. Besides, the left shift value in experiment [2] was determined as 8.4 µM.
The molecule `Cc1ccccc1C(c1nnnn1C(C)(C)C)N1CCc2c(Cl)cccc2C1` (centres unmarked) [Example 29] displayed a T/C in experiment [1] (test concentration 10 uM) of 135.5%. The left shift value in experiment [2] amounted to 15.2 µM.
For the molecule `COc1ccccc1C(c1nnnn1C1(C)CCCCCC1)N1CCc2ccccc2C1` (centres unmarked) [Example 45], the T/C in experiment [1] (test concentration 5 uM) is given as 144.3%. In addition, the left shift value in experiment [2] was 5.7 µM.
As to `CC(C)(C)n1nnnc1C(c1ccc(Cl)cc1)N1CCc2ccccc2C1` (centres unmarked) [Example 10], the T/C in experiment [1] (test concentration 10 uM) amounted to 117.0%. The left shift value in experiment [2] is 110.9 µM.
For `CC(C)(C)n1nnnc1C(c1ccccc1N)N1CCc2ccccc2C1` (centres unmarked) [Example 26] the same measures were 105.5% and 163.7 µM.
For the molecule `CC(C)(C)n1nnnc1C(c1ccccc1F)N1CCc2ccccc2C1` (centres unmarked) [Example 54], the left shift value in experiment [3] turned out to be 2.9 µM; in experiment [2], 4.7 µM.
As for `COc1cc[nH]c1C(c1nnnn1C(C)(C)C)N1CCc2ccccc2C1` (centres unmarked) [Example 43], the T/C in experiment [1] (test concentration 10 uM) is 267.8%. Moreover, in experiment [2], the left shift value stood at 1.2 µM.
In turn, `CSc1ccccc1C(c1nnnn1C1(C)CCCCCC1)N1CCc2ccccc2C1` (centres unmarked) [Example 47] came in with a T/C in experiment [1] (test concentration 10 uM) of 121.9%. Moreover, the left shift value in experiment [2] is 25.4 µM.
Turning to `COc1cccc(OC)c1C(c1nnnn1C(C)(C)C)N1CCc2ccccc2C1` (centres unmarked) [Example 37], the T/C in experiment [1] (test concentration 10 uM) came to 104.9%. In addition, the left shift value in experiment [2] came to 71.1 µM.
For the molecule `CC(C)(C)n1nnnc1C(c1ccccc1Br)N1CCc2ccccc2C1` (centres unmarked) [Example 2], the T/C in experiment [1] (test concentration 10 uM) amounted to 152.5%. Further, the left shift value in experiment [2] turned out to be 15.5 µM.
The corresponding values for `CC(C)(C)n1nnnc1C(c1ccccc1)N1CCc2ccccc2C1` (centres unmarked) [Example 39] are 144.4% and 12.3 µM.
Turning to `CC(C)(C)n1nnnc1C(c1c[nH]c2ccccc12)N1CCc2ccccc2C1` (centres unmarked) [Example 36], the T/C in experiment [1] (test concentration 10 uM) is given as 172.6%. In addition, in experiment [2], the left shift value is 5.7 µM.
In turn, `COc1ccccc1C(c1nnnn1C1C2CC3CC(C2)CC1C3)N1CCc2ccccc2C1` (centres unmarked) [Example 20] showed a T/C in experiment [1] (test concentration 5 uM) of 126.3%. Further, the left shift value in experiment [2] was determined as 11.1 µM.
Molecule `COc1ccc(C(c2nnnn2C(C)(C)C)N2CCc3ccccc3C2)c(F)c1` (centres unmarked) [Example 8] yielded a T/C in experiment [1] (test concentration 10 uM) of 184.2%. Moreover, the left shift value in experiment [2] is 7.2 µM.
In experiment [1] (test concentration 5 uM), `COc1csc(C(c2nnnn2C(C)(C)C)N2CCc3ccccc3C2)c1` (centres unmarked) [Example 44] showed a T/C of 143.8%. Also, in experiment [2], the left shift value was 7.7 µM.
For `CC(C)(C)n1nnnc1C(c1ccc(O)cc1)N1CCc2ccccc2C1` (centres unmarked) [Example 5], the T/C in experiment [1] (test concentration 10 uM) was 156.4%. Further, the left shift value in experiment [2] worked out at 10.9 µM.
The corresponding values for `Cc1ccc(C(c2nnnn2C(C)(C)C)N2CCc3ccccc3C2)cc1` (centres unmarked) [Example 9] are 153.2% and 13.4 µM.
Molecule `CC(C)(C)n1nnnc1C(c1ccco1)N1CCc2ccccc2C1` (centres unmarked) [Example 33] returned a T/C in experiment [1] (test concentration 10 uM) of 119.7%. In experiment [2], the left shift value was determined as 38.4 µM.
In experiment [1] (test concentration 10 uM), `Cc1ccccc1C(c1nnnn1C(C)(C)C)N1CCc2ccccc2C1` (centres unmarked) [Example 25] returned a T/C of 177.2%. For the same molecule, the left shift value in experiment [2] turned out to be 5.5 µM.
The corresponding values for `CC(C)(C)n1nnnc1C(c1ccccc1O)N1CCc2ccccc2C1` (centres unmarked) [Example 57, 2-((1-tert-butyl-1H-tetrazol-5-yl)(3,4-dihydroisoquinolin-2(1H)-yl)methyl)phenol] are 256.5% and 1.4 µM.
Regarding `CC(C)(C)n1nnnc1C(c1ccccc1F)N1CCc2ccc(Cl)cc2C1` (centres unmarked) [Example 16], the T/C in experiment [1] (test concentration 10 uM) turned out to be 104.6%. For the same molecule, in experiment [2], the left shift value was 232.2 µM.
As to `COc1ccccc1C(c1nnnn1C1(C)CCCC1)N1CCc2ccccc2C1` (centres unmarked) [Example 22], in experiment [1] (test concentration 10 uM), the T/C turned out to be 149.6%. For the same molecule, the left shift value in experiment [2] amounted to 8.3 µM.
Molecule `COc1ncccc1C(c1nnnn1C(C)(C)C)N1CCc2ccccc2C1` (centres unmarked) [Example 14] showed a T/C in experiment [1] (test concentration 10 uM) of 132.1%. For the same molecule, in experiment [2], the left shift value was 17.7 µM.
As to `Cc1ccccc1C(c1nnnn1C1(C)CCCCC1)N1CCc2ccccc2C1` (centres unmarked) [Example 42], in experiment [1] (test concentration 10 uM), the T/C came to 142.5%. The left shift value in experiment [2] came to 14.5 µM.
`Cc1ccccc1C(c1nnnn1C1(C)CCCCCC1)N1CCc2ccccc2C1` (centres unmarked) [Example 46] showed a T/C in experiment [1] (test concentration 10 uM) of 106.2%. For the same molecule, the left shift value in experiment [2] is 267.0 µM.
The corresponding values for `Cc1ccc2c(c1)CN(C(c1ccccc1C)c1nnnn1C(C)(C)C)CC2` (centres unmarked) [Example 24] are 116.3% and 61.25 µM.
As to `CC(C)(C)n1nnnc1C(C1=CC=CC1)N1CCc2ccccc2C1` (centres unmarked) [Example 31], the T/C in experiment [1] (test concentration 10 uM) is recorded as 186.2%. For the same molecule, the left shift value in experiment [2] came out at 3.5 µM.
For `Cc1ccc2c(c1)CN(C(c1ccccc1C)c1nnnn1C(C)(C)C)CC2` (centres unmarked) [Example 27], the T/C in experiment [1] (test concentration 5 uM) is 99.8%. Besides, the left shift value in experiment [2] is 15.2 µM.
In the case of `CC(C)(C)n1nnnc1C(c1ccc[nH]1)N1CCc2ccccc2C1` (centres unmarked) [Example 35], in experiment [1] (test concentration 10 uM), the T/C worked out at 121.8%. Further, in experiment [2], the left shift value is 28.5 µM.
